Like-named read-outs stand apart in the source and are kept apart here.
Legend:
[1] = tested on: K88 Cured vaccine (MS-K88-030321HM-PC2BSRAK88); assay: Antibiotic sensitivity (Int/MIC) at Iowa State University; assay type: cell-based, E. coli; settings: for MIC: Table 7, E. COS, K88 Cured vaccine; for Antibiotic sensitivity of cured cells (in words): cured MS-K88-030321HM-PC2BSRAK88 cells compared with ECMS091703HM-competent cells
Method: (§1) The antibiotic sensitivity of Entero Vac K88 cells cured of plasmids that contain AMR genes (MS-K88-030321HM-PC2BSRAK88) was performed at Iowa State University (ISU) with comparison to ECMS091703HM-competent cells.

[2] = tested on: K88 Pre-Cured cells (ECMS091703HM-competent); assay: as above; assay type: cell-based, E. coli; settings: Table 7, E. COS
Method: as §1

[3] = tested on: F18 Pre-Cured cells (MS112101HM-competent); assay: as above; assay type: cell-based, E. coli; settings: Table 4, E. COLH
Method: (§2) The antibiotic sensitivity of Edema Vac F18 cells cured of plasmids that contain AMR genes (MS060520HM-PCISRAF18) was performed at Iowa State University (ISU) (Accession: 2020076670) with comparison to MS112101HM-competent cells (see Tables 4 and 5).

[4] = tested on: F18 Cured vaccine (MS060520HM-PCISRAF18); assay: as above; assay type: cell-based, E. coli; settings: for MIC: F18 Cured vaccine; for Antibiotic resistance of cured cells (in words): cured MS060520HM-PCISRAF18 cells over MS112101HM-competent cells
Method: as §2

[5] = tested on: MS112101HM-SR (Edema Vac F18 cells cured of plasmids that contain AMR genes); assay: AMR disc testing on Mueller Hinton agar plates; assay type: cell-based, E. coli; settings: for Ring measurement (radius, mm): antibiotic disc, Mueller Hinton plates, MS112101HM-SR; for Resistance of the strain to the antibiotic (in words): disc test, MS112101HM-SR compared with MS112101HM-competent
Method: (§3) AMR testing was performed comparing MS112101HM—SR, MS112101HM-AMR5, and MS112101HM-competent cells cultured on Mueller Hinton agar plates using Sulfatrim (SXT), Tetracycline (TE 30), Neomycin (NE 30), Sulfathiazine (ST 0.25), and Gentamicin (GM 10) discs.

[6] = tested on: MS112101HM-AMR5 (Edema Vac F18 transformed with AMR5 plasmid); assay: AMR disc testing on Mueller Hinton agar plates; assay type: cell-based, E. coli; settings: for Ring measurement (radius, mm): antibiotic disc, Mueller Hinton plates
Method: as §3

[7] = tested on: MS112101HM-competent (competent Edema Vac F18 cells); assay: AMR disc testing on Mueller Hinton agar plates; assay type: cell-based, E. coli; settings: antibiotic disc
Method: as §3

[8] = tested on: ECMS091703HM-SR (Entero Vac K88 cells cured of plasmids that contain AMR genes); assay: AMR disc testing on Mueller Hinton agar plates; assay type: cell-based, E. coli
Method: AMR testing was performed comparing ECMS091703HM-SR and ECMS091703HM-competent cells cultured on Mueller Hinton agar plates using Neomycin (NE 30) and Sulfathiazine (ST 0.25) discs. A master plate of ECMS091703HM-SR was produced as follows: subculturing a colony of ECMS091703HM-SR from LB agar containing 5% sucrose on new LB agar containing 5% sucrose, incubating overnight at 37° C., and storing sealed at 2-8° C.

[9] = tested on: Entero Vac K88 strain of E. coli vaccine; settings: TSB media, overnight 37° C.
Method: (§4) Testing for resistance of the live avirulent E. coli strains, Entero Vac K88 and Edema Vac F18, to sodium chlorite was performed by evaluating the minimum inhibitory concentration of sodium chlorite as follows: Serial dilutions of sodium chlorite were prepared from a 100 mM stock solution using sterile TSB media and filter sterilized through 0.22 μm filter. Serially diluted tubes (5 ml each) were inoculated with either Entero Vac K88 or Edema Vac F18 strains of E. coli vaccine by adding 20 μl of 100 dose size of either Entero Vac K88 or Edema Vac F18 vaccine rehydrated in 5 ml TSB media. Positive controls are inoculated TSB media only, negative controls are uninoculated TSB media. All tubes were incubated overnight at 37° C. and turbidity was visualized the following day. Results of the MIC tests are disclosed in Table 1.

[10] = tested on: Edema Vac F18 strain of E. coli vaccine; settings: TSB media, overnight 37° C.
Method: as §4

| Molecule | MIC [1] | MIC [2] | MIC [3] | MIC ([4]; Table 4, E. COLH) | MIC ([4]; Table 5, E. COS) | Antibiotic resistance of cured cells (in words) [4] | also measured |
| --- | --- | --- | --- | --- | --- | --- | --- |
| CCCN1C[C@H](C)[C@@H](O)[C@](C)(O)[C@@H](CC)OC(=O)[C@H](C)[C@@H](O[C@H]2C[C@@](C)(OC)[C@@H](O)[C@H](C)O2)[C@H](C)[C@@H](O[C@@H]2O[C@H](C)C[C@H](N(C)C)[C@H]2O)[C@](C)(O)C[C@H]1C [Gamithromycin] | NI/8.0000 ^ | NI/>8.0000 | NI/4.0000 ^ | NI/4.0000 ^ | NI/8.0000 ^ | – | – |
| CN[C@@H]1[C@H](O)[C@H](NC)[C@H]2O[C@@]3(O)C(=O)C[C@@H](C)O[C@H]3O[C@@H]2[C@H]1O [Spectinomycin] | NI/<=8.0000 | NI/>64.0000 | NI/>64.0000 | NI/16.0000 | NI/<=8.0000 | – | – |
| CN1C[C@@H]2C[C@H]1CN2c1cc2c(cc1F)c(=O)c(C(=O)O)cn2C1CC1 [Danofloxacin] | NI/<=0.1200 | NI/<=0.1200 | NI/<=0.1200 | NI/<=0.1200 | NI/<=0.1200 | – | – |
| CN(C)[C@@H]1C(O)=C(C(N)=O)C(=O)[C@@]2(O)C(O)=C3C(=O)c4c(O)cccc4[C@@](C)(O)[C@H]3C[C@@H]12 [Tetracycline] | – | – | – | – | – | – | Ring measurement (radius, mm) [5]: 0 mm; Ring measurement (radius, mm) [6]: 0 mm; Ring measurement (radius, mm) [7]: 0 mm |
| CC[C@H]1OC(=O)C[C@@H](O)[C@H](C)[C@@H](O[C@@H]2O[C@H](C)[C@@H](O[C@H]3C[C@@](C)(O)[C@@H](O)[C@H](C)O3)[C@H](N(C)C)[C@H]2O)[C@@H](CC=O)C[C@@H](C)C(=O)/C=C/C(C)=C/[C@@H]1CO[C@@H]1O[C@H](C)[C@@H](O)[C@@H](OC)[C@H]1OC [Tylosin (Tartrate/Base), Tylosin] | NI/>32.0000 | NI/>32.0000 | NI/>32.0000 | NI/>32.0000^ | NI/>32.0000 | – | – |
| Trimethoprim/Sulphamethoxazole | NI/<=2.0000 | NI/<=2.0000 | NI/<=2.0000 | NI/<=2.0000 | NI/<=2.0000 | – | – |
| Sulfatrim [SXT] | – | – | – | – | – | – | Ring measurement (radius, mm) [5]: 16 mm; Resistance of the strain to the antibiotic (in words) [5]: less resistance; Ring measurement (radius, mm) [6]: 17 mm; Ring measurement (radius, mm) [7]: 11 mm |
| CS(=O)(=O)c1ccc([C@@H](O)[C@@H](CF)NC(=O)C(Cl)Cl)cc1 [Florfenicol] | – | – | – | – | – | loss of antibiotic resistance | Antibiotic sensitivity of cured cells (in words) [1]: more sensitive |
| Gentamicin | – | – | – | – | – | loss of antibiotic resistance | Ring measurement (radius, mm) [5]: 11 mm; Resistance of the strain to the antibiotic (in words) [5]: less resistance; Ring measurement (radius, mm) [6]: 11 mm; Ring measurement (radius, mm) [7]: 4 mm |
| CC[C@H]1OC(=O)C[C@@H](O)[C@H](C)[C@@H](O[C@@H]2O[C@H](C)[C@@H](O)[C@H](N(C)C)[C@H]2O)[C@@H](CCN2C[C@H](C)C[C@H](C)C2)C[C@@H](C)C(=O)/C=C/C(C)=C/[C@@H]1CO[C@@H]1O[C@H](C)[C@@H](O)[C@@H](OC)[C@H]1OC [Tilmicosin] | – | – | – | – | – | retained resistance | – |
| C=C[C@]1(C)C[C@@H](OC(=O)CSCCN(CC)CC)[C@]2(C)[C@H](C)CC[C@]3(CCC(=O)[C@H]32)[C@@H](C)[C@@H]1O [Tiamulin] | – | – | – | – | – | retained resistance | – |
| CC[C@H]1OC(=O)C[C@@H](O)[C@H](C)[C@@H](O[C@@H]2O[C@H](C)[C@@H](O)[C@H](N(C)C)[C@H]2O)[C@@H](CCN2CCCCC2)C[C@@H](C)C(=O)/C=C/C(C)=C/[C@@H]1CN1CCCCC1 [Tildipirosin] | NI/8.0000 ^ | NI/8.0000 ^ | NI/4.0000 ^ | NI/4.0000 ^ | NI/8.0000 ^ | – | – |
| COc1cc(NS(=O)(=O)c2ccc(N)cc2)nc(OC)n1 [Sulfadimethoxine] | – | – | – | – | – | loss of antibiotic resistance | Antibiotic sensitivity of cured cells (in words) [1]: more sensitive |
| Neomycin | – | – | – | – | – | – | Antibiotic sensitivity of cured cells (in words) [1]: more sensitive; Ring measurement (radius, mm) [5]: 8 mm; Resistance of the strain to the antibiotic (in words) [5]: less resistance; Ring measurement (radius, mm) [6]: 11 mm; Resistance of the strain to the antibiotic (in words) ([6]; disc test): retained resistance; Ring measurement (radius, mm) [7]: 7 mm; Ring measurement (radius, mm) ([8]; antibiotic disc, Mueller Hinton plates, ECMS091703HM-SR): 34 mm; Resistance of the strain to the antibiotic (in words) ([8]; disc test, ECMS091703HM-SR compared with ECMS091703HM-competent): less resistance |
| CCCNC[C@]1(O)[C@H](C)O[C@@H](O[C@H]2[C@H](C)[C@@H](O[C@@H]3O[C@H](C)C[C@H](N(C)C)[C@H]3O)[C@](C)(O)C[C@@H](C)CN[C@H](C)[C@@H](O)[C@](C)(O)[C@@H](CC)OC(=O)[C@@H]2C)C[C@@]1(C)OC [Tulathromycin] | NI/<=8.0000 | NI/32.0000 ^ | NI/<=8.0000 | NI/<=8.0000 | NI/<=8.0000 | – | – |
| Penicillin | – | – | – | – | – | retained resistance | – |
| Sodium Chlorite [NaClO2] | – | – | – | – | – | – | Turbidity ([9]; NaClO2 0.03125 mM): Pos; Turbidity ([9]; NaClO2 0.0625 mM): Pos; Turbidity ([9]; NaClO2 0.125 mM): Neg; Turbidity ([9]; NaClO2 0.25 mM): Neg; Turbidity ([9]; NaClO2 0.5 mM): Neg; Turbidity ([9]; NaClO2 1 mM): Neg; Turbidity ([9]; NaClO2 10 mM): Neg; Turbidity ([10]; NaClO2 0.03125 mM): Pos; Turbidity ([10]; NaClO2 0.0625 mM): Pos; Turbidity ([10]; NaClO2 0.125 mM): Neg; Turbidity ([10]; NaClO2 0.25 mM): Neg; Turbidity ([10]; NaClO2 0.5 mM): Neg; Turbidity ([10]; NaClO2 1 mM): Neg; Turbidity ([10]; NaClO2 10 mM): Neg |

From patent US20260097106A1, “AVIRULENT LIVE BACTERIAL VACCINES CURED OF PLASMIDS CONTAINING ANTIMICROBIAL RESISTANCE GENES” (Drs. Koehnk & Feldman, LLP, priority 2022, published 2026)
